Source: patent US20060069132A1, “Azolecarboxamide herbicides” (priority 2004, published 2006)

Experiments:
[1] = tested on: small flower umbrella sedge; assay: Test B flooded paddy test; type: in vivo, Cyperus difformis; settings: 1000 g ai/ha, scale 0 to 100 (0 no effect, 100 complete control)
Outline: (§1)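 Read-out: visual comparison with controls, scored 0 to 100, where 100 means complete control and 0 no effect. Formulated chemicals were applied postemergence to plants 2–18 cm tall (1- to 4-leaf), or to flooded-paddy plants at the 2-leaf stage, then held 13 to 15 days under glass.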

velvetleaf [2] = assay: Test B pre-/postemergence herbicide test; type: in vivo, Abutilon theophrasti; settings: for Velvetleaf plant response rating: postemergence
Outline: (§2)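 Seeds were planted and treated preemergence with compounds formulated in a non-phytotoxic solvent mixture containing surfactant, while plants at the 1- to 4-leaf stage (2 to 18 cm) received postemergence sprays. Flooded paddy plants were grown to the 2-leaf stage. After 13 to 15 days in a greenhouse, injury was visually rated 0–100 against untreated controls.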

barnyardgrass [3] = assay: Test A pre-/postemergence herbicide test; type: in vivo, Echinochloa crus-galli
Outline: (§3)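 Pre: seeded sandy loam, directed soil spray, compound in non-phytotoxic solvent + surfactant. Post: 1–2-leaf plants (2–10 cm), sprayed to runoff. Greenhouse ~10 d; visual injury vs untreated, 0–100 scale.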

large crabgrass [4] = assay: Test A pre-/postemergence herbicide test; type: in vivo, Digitaria sanguinalis
Outline: as §3

giant foxtail [5] = assay: Test A pre-/postemergence herbicide test; type: in vivo, Setaria faberi
Outline: as §3

morningglory [6] = assay: Test A pre-/postemergence herbicide test; type: in vivo, Ipomoea spp.
Outline: as §3

wheat = assay: Test B postemergence herbicide test; type: in vivo, Triticum aestivum; design: key to Wheat plant response rating: 0 = no effect, 100 = complete control; settings: postemergence
Outline: as §1

barnyardgrass [7] = assay: Test B pre-/postemergence herbicide test; type: in vivo, Echinochloa crus-galli; settings: for Barnyardgrass plant response rating: postemergence
Outline: (§4)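 Pre: seeds sown, then sprayed. Post: 1–4-leaf plants (2–18 cm) sprayed at the same time. Paddy: flooded, treated at 2-leaf stage. Formulation: non-phytotoxic solvent with surfactant. Greenhouse 13–15 days; visual 0–100 score relative to controls.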

blackgrass = assay: Test B postemergence herbicide test; type: in vivo, Alopecurus myosuroides; settings: postemergence
Outline: as §1

rice [8] = assay: Test B flooded paddy test; type: in vivo, Oryza sativa; settings: 1000 g ai/ha, scale 0 to 100 (0 no effect, 100 complete control)
Outline: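 Visual ratings, 0 (no effect) to 100 (complete control), made versus controls after 13–15 d greenhouse. Paddy plants treated at 2-leaf stage; postemergence plants at 1- to 4-leaf stage, 2–18 cm tall.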

Surinam grass = assay: Test B pre-/postemergence herbicide test; type: in vivo, Urochloa decumbens; settings: for Surinam Grass plant response rating: postemergence
Outline: as §2

large crabgrass [9] = assay: Test B pre-/postemergence herbicide test; type: in vivo, Digitaria sanguinalis; settings: for Crabgrass, Large plant response rating: postemergence
Outline: as §2

cocklebur = assay: Test B pre-/postemergence herbicide test; type: in vivo, Xanthium strumarium; settings: for Cocklebur plant response rating: postemergence
Outline: as §4

morningglory [10] = assay: Test B pre-/postemergence herbicide test; type: in vivo, Ipomoea coccinea; settings: for Morningglory plant response rating: postemergence
Outline: as §4

barnyardgrass [11] = assay: Test B flooded paddy test; type: in vivo, Echinochloa crus-galli; settings: 1000 g ai/ha, scale 0 to 100 (0 no effect, 100 complete control)
Outline: as §1

corn = assay: Test B pre-/postemergence herbicide test; type: in vivo, Zea mays; settings: for Corn plant response rating: postemergence
Outline: as §2

wild oat = assay: Test B postemergence herbicide test; type: in vivo, Avena fatua; settings: postemergence
Outline: as §1

redroot pigweed = assay: Test A pre-/postemergence herbicide test; type: in vivo, Amaranthus retroflexus
Outline: as §3

pigweed = assay: Test B pre-/postemergence herbicide test; type: in vivo, Amaranthus retroflexus; settings: for Pigweed plant response rating: postemergence
Outline: as §2

lambsquarters = assay: Test B pre-/postemergence herbicide test; type: in vivo, Chenopodium album; settings: for Lambsquarters plant response rating: postemergence
Outline: as §2

ducksalad = assay: Test B flooded paddy test; type: in vivo, Heteranthera limosa; settings: 1000 g ai/ha, scale 0 to 100 (0 no effect, 100 complete control)
Outline: as §1

velvetleaf [12] = assay: Test A pre-/postemergence herbicide test; type: in vivo, Abutilon theophrasti
Outline: as §3

giant foxtail [13] = assay: Test B pre-/postemergence herbicide test; type: in vivo, Setaria faberi; settings: for Foxtail, Giant plant response rating: postemergence
Outline: as §2

rice [14] = assay: Test B pre-/postemergence herbicide test; type: in vivo, Oryza sativa; settings: preemergence
Outline: as §2

[15] = 125 g ai/ha, 0 is no effect, 100 is complete control, preemergence
[16] = 125 g ai/ha, visual rating, scale 0 (no effect) to 100 (complete control)
[17] = 500 g ai/ha, visual rating, 0 = no effect, 100 = complete control, preemergence
[18] = 500 g ai/ha, scale 0 to 100, 0 is no effect, 100 is complete control
[19] = Postemergence, 500 g ai/ha, 0 to 100 scale, 0 no effect, 100 complete control
[20] = Postemergence, 2000 g ai/ha, 0 to 100 scale, 0 no effect, 100 complete control
[21] = Preemergence, 2000 g ai/ha, visual rating, 0 to 100 scale (0 no effect, 100 complete control)
[22] = preemergence, 500 g ai/ha, visual injury, 0 to 100 scale (0 no effect, 100 complete control)

## C#CCOC(=O)c1cccc(NC(=O)c2cc(C(C)(C)C)nn2C)n1 [Compound 317]
[1]
  Sedge, Umbrella plant response rating: 0
Velvetleaf [2]; [15]
  Plant response rating (0 to 100 scale), Velvetleaf: 0
Velvetleaf [2]; [16]
  Velvetleaf plant response rating: 0
Velvetleaf [2]; [17]
  Plant response rating, Velvetleaf: 0
Velvetleaf [2]; [18]
  Velvetleaf plant response rating: 0
Barnyardgrass [3]; [19]
  Barnyardgrass plant response rating: 0
Barnyardgrass [3]; [20]
  Plant response rating, Barnyardgrass: 0
Barnyardgrass [3]; [21]
  Barnyardgrass plant response rating: 0
Barnyardgrass [3]; [22]
  Barnyardgrass plant response rating: 0
Large crabgrass [4]; [19]
  Crabgrass, Large plant response rating: 10
Large crabgrass [4]; [20]
  Plant response rating, Crabgrass, Large: 10
Large crabgrass [4]; [21]
  Crabgrass, Large plant response rating: 10
Large crabgrass [4]; [22]
  Crabgrass, Large plant response rating: 0
Giant foxtail [5]; [19]
  Foxtail, Giant plant response rating: 0
Giant foxtail [5]; [20]
  Plant response rating, Foxtail, Giant: 0
Giant foxtail [5]; [21]
  Foxtail, Giant plant response rating: 0
Giant foxtail [5]; [22]
  Foxtail, Giant plant response rating: 0
Morningglory [6]; [19]
  Morningglory plant response rating: 0
Morningglory [6]; [20]
  Plant response rating, Morningglory: 0
Morningglory [6]; [21]
  Morningglory plant response rating: 0
Morningglory [6]; [22]
  Morningglory plant response rating: 0
wheat; [16]
  Wheat plant response rating: 0
wheat; [18]
  Wheat plant response rating: 0
Barnyardgrass [7]; [15]
  Plant response rating (0 to 100 scale), Barnyardgrass: 0
Barnyardgrass [7]; [16]
  Barnyardgrass plant response rating: 0
Barnyardgrass [7]; [17]
  Plant response rating, Barnyardgrass: 0
Barnyardgrass [7]; [18]
  Barnyardgrass plant response rating: 0
blackgrass; [16]
  Blackgrass plant response rating: 0
blackgrass; [18]
  Blackgrass plant response rating: 0
Rice [8]
  Rice plant response rating: 0
Surinam grass; [15]
  Plant response rating (0 to 100 scale), Surinam Grass: 0
Surinam grass; [16]
  Surinam Grass plant response rating: 0
Surinam grass; [17]
  Plant response rating, Surinam Grass: 0
Surinam grass; [18]
  Surinam Grass plant response rating: 0
Large crabgrass [9]; [15]
  Plant response rating (0 to 100 scale), Crabgrass, Large: 0
Large crabgrass [9]; [16]
  Crabgrass, Large plant response rating: 0
Large crabgrass [9]; [17]
  Plant response rating, Crabgrass, Large: 0
Large crabgrass [9]; [18]
  Crabgrass, Large plant response rating: 0
cocklebur; [15]
  Plant response rating (0 to 100 scale), Cocklebur: 0
cocklebur; [16]
  Cocklebur plant response rating: 0
cocklebur; [17]
  Plant response rating, Cocklebur: 0
cocklebur; [18]
  Cocklebur plant response rating: 0
Morningglory [10]; [15]
  Plant response rating (0 to 100 scale), Morningglory: 0
Morningglory [10]; [16]
  Morningglory plant response rating: 0
Morningglory [10]; [17]
  Plant response rating, Morningglory: 0
Morningglory [10]; [18]
  Morningglory plant response rating: 0
Barnyardgrass [11]
  Barnyardgrass plant response rating: 0
corn; [15]
  Plant response rating (0 to 100 scale), Corn: 0
corn; [16]
  Corn plant response rating: 0
corn; [17]
  Plant response rating, Corn: 0
corn; [18]
  Corn plant response rating: 0
Wild oat; [16]
  Oat, Wild plant response rating: 0
Wild oat; [18]
  Oat, Wild plant response rating: 0
Redroot pigweed; [19]
  Pigweed plant response rating: 0
Redroot pigweed; [20]
  Plant response rating, Pigweed: 10
Redroot pigweed; [21]
  Pigweed plant response rating: 30
Redroot pigweed; [22]
  Pigweed plant response rating: 20
pigweed; [15]
  Plant response rating (0 to 100 scale), Pigweed: 0
pigweed; [16]
  Pigweed plant response rating: 0
pigweed; [17]
  Plant response rating, Pigweed: 0
pigweed; [18]
  Pigweed plant response rating: 0
lambsquarters; [15]
  Plant response rating (0 to 100 scale), Lambsquarters: 0
lambsquarters; [16]
  Lambsquarters plant response rating: 0
lambsquarters; [17]
  Plant response rating, Lambsquarters: 0
lambsquarters; [18]
  Lambsquarters plant response rating: 50
ducksalad
  Ducksalad plant response rating: 0
Velvetleaf [12]; [19]
  Velvetleaf plant response rating: 0
Velvetleaf [12]; [20]
  Plant response rating, Velvetleaf: 0
Velvetleaf [12]; [21]
  Velvetleaf plant response rating: 30
Velvetleaf [12]; [22]
  Velvetleaf plant response rating: 0
Giant foxtail [13]; [15]
  Plant response rating (0 to 100 scale), Foxtail, Giant: 0
Giant foxtail [13]; [16]
  Foxtail, Giant plant response rating: 0
Giant foxtail [13]; [17]
  Plant response rating, Foxtail, Giant: 0
Giant foxtail [13]; [18]
  Foxtail, Giant plant response rating: 0
Rice [14]; 125 g ai/ha, 0 is no effect, 100 is complete control
  Plant response rating (0 to 100 scale), Rice: 0
Rice [14]; 500 g ai/ha, visual rating, 0 = no effect, 100 = complete control
  Plant response rating, Rice: 0
